Structures are written as SMILES.

For assay [1], the system named is TYK2 Pseudokinase (JH2). In words: HEK-Blue IL-23 reporter assay (SEAP) for profiling TYK2 pseudokinase (JH2) inhibition. The note with it: HEK-Blue IL-23 cells, 10 ng/mL human recombinant IL-23, SEAP reporter; read-out: IL23 IC50 (TYK2 inhibitory activity). The class given is cell-based. The procedure: (§1) HEK-Blue™ IL-23 and IFNα/β cells with a stably-integrated cytokine receptor and STAT3 or STAT1 express STAT-inducible secreted embryonic alkaline phosphatase (SEAP) reporter gene upon cytokine stimulation. These cells are plated in DMEM (Gibco) containing 10% heat-inactivated FBS (Gibco) and 100 U/mL PenStrep (Gibco) at 37° C. under 5% CO2 conditions for 20-22 hours. The cells are then pretreated with serially diluted test compounds for 60 min prior to stimulation with either 10 ng/mL human recombinant IL-23 (Miltenyl Biotech) or 1 ng/mL human recombinant IFNα (InvivoGen) for 22-24 hours for IL-23 or 16-18 h for IFNα. SEAP induction is measured using the QUANTI Blue™ Solution (InvivoGen) according to the manufacturer's instructions.

Assay [2] concerns TYK2 Pseudokinase (JH2). The assay is described as follows: HEK-Blue IFNα/β reporter assay (SEAP) for profiling TYK2 pseudokinase (JH2) inhibition. The class given is cell-based. As to conditions: HEK-Blue IFNα/β cells, 1 ng/mL human recombinant IFNα, read-out: IFNα IC50 (TYK2 inhibitory activity). On the procedure:
as §1

The target in assay [3] is T1, TYK2-JH1 (Homo sapiens, UniProt P29597).
T1 construct: using a recombinant purified His or GST-tagged catalytic domain for each enzyme; made in house
T1 sequence (P29597 897-1176 limits assumed): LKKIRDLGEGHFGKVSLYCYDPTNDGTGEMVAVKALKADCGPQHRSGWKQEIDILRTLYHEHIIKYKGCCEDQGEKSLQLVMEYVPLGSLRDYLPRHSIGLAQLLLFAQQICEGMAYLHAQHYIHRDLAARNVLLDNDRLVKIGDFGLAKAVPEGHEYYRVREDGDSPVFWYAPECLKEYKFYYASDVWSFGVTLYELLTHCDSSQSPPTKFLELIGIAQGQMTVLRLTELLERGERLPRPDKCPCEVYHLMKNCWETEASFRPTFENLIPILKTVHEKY
In words: HTRF-based selectivity assay, TYK2 catalytic domain. In kind it is biochemical. The note with it: kinase domain (JH1), 20 μM ATP. On the procedure: (§2) The ability of compounds to inhibit the activity of JAK1, JAK2, JAK3 and TYK2 is measured using a recombinant purified His or GST-tagged catalytic domain for each enzyme (JAK1, JAK2 and TYK2 are generated in-house; JAK3 was purchased from Carna biosciences, Cat #08-046) in an HTRF format biochemical assay. The reactions employs a commercial peptide substrate from Cisbio (Cat #62TK0PEC). The basic assay protocol is as follows: first, 2.5 μL of diluted compounds (4×) in DMSO are dispensed into a 384-well Optiplate. Next, 2.5 μL of enzyme (final concentrations for enzymes are: TYK2-700 ng/mL, JAK1-80.6 ng/ml, JAK2-2.1 ng/ml and JAK3-171.8 ng/mL) is added and incubated at RT for 5-20 min. Finally, 5 μl of mixture of 2×ATP [Final concentration 20 μM for TYK2, 21.43 μM for JAK1, 14.7 μM for JAK2 and 2.12 μM for JAK3]+2× Substrate [Final concentration 217 nM for TYK2, 454.7 nM for JAK1, 200 nM for JAK2 and 257.4 nM for JAK3] is added to 384 well Optiplate. Composition of Kinase assay buffer used in the assay is as follows: HEPES 50 mM, EGTA 1 mM, MgCl2 10 mM, DTT 2 mM, Tween-20 0.01% and water. Then the plates are shaken and then incubated at 26.5° C. for 60 min.

Assay [4] addresses T2, JAK1-JH1 (Homo sapiens, UniProt P23458).
T2 construct: using a recombinant purified His or GST-tagged catalytic domain for each enzyme; made in house
The assay is described as follows: HTRF-based selectivity assay, JAK1 catalytic domain. The class given is biochemical. As to conditions: kinase domain (JH1), 21.43 μM ATP. On the procedure:
as §2

For assay [5], the target named is T3, JAK2-JH1 (Homo sapiens, UniProt O60674).
T3 construct: using a recombinant purified His or GST-tagged catalytic domain for each enzyme; made in house
The assay is described as follows: HTRF-based selectivity assay, JAK2 catalytic domain. In kind it is biochemical. As to conditions: kinase domain (JH1), 14.7 μM ATP. On the procedure: as §2

Assay [6] has as its target T4, JAK3-JH1 (Homo sapiens, UniProt P52333).
T4 construct: using a recombinant purified His or GST-tagged catalytic domain for each enzyme; purchased Carna biosciences 08-046
The assay is described as follows: HTRF-based selectivity assay, JAK3 catalytic domain. The class given is biochemical. As to conditions: kinase domain (JH1), 2.12 μM ATP. The procedure:
as §2

For assay [7], the system named is HEK-Blue IL-2 reporter cells. The assay is described as follows: HEK-Blue IL-2 reporter assay (SEAP) for determining selectivity. The class given is cell-based. The note with it: HEK-Blue IL-2 cells, 4 ng/ml human recombinant IL-2, SEAP reporter. The procedure:
(§3) HEK-Blue™ IL-2 and IFNγ reporter cells with a stably-integrated cytokine receptor and STAT5 or STAT1 express STAT-inducible secreted embryonic alkaline phosphatase (SEAP) reporter gene upon cytokine stimulation. These cells were plated in DMEM (Gibco) containing 10% heat-inactivated FBS (Gibco) and 100 U/mL PenStrep (Gibco) at 37° C. under 5% CO2 conditions for 20-22 hours. The cells were then pretreated with serially diluted test compounds for 60 min prior to stimulation with either 4 ng/ml human recombinant IL-2 (Miltenyl Biotech) or 50 ng/ml human recombinant IFNγ (InvivoGen) for 24 hours. SEAP induction was measured using the QUANTI-Blue™ Solution (InvivoGen) according to the manufacturer's instructions.

Assay [8] concerns HEK-Blue IFNγ reporter cells. In words: HEK-Blue IFNγ reporter assay (SEAP) for determining selectivity. In kind it is cell-based. As to conditions: 50 ng/ml human recombinant IFNγ, read-out: IFN-γ IC50 (SEAP selectivity). On the procedure: as §3

T3 sequence (O60674 849-1124 limits assumed): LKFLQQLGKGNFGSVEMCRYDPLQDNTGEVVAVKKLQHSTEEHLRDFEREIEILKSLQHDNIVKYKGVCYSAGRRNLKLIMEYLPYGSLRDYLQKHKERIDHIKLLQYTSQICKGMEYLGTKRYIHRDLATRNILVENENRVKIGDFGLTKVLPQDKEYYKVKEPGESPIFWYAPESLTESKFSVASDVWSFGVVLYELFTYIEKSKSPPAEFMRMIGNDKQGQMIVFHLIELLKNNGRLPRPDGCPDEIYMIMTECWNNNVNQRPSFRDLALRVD
T4 sequence (P52333 822-1111 limits assumed): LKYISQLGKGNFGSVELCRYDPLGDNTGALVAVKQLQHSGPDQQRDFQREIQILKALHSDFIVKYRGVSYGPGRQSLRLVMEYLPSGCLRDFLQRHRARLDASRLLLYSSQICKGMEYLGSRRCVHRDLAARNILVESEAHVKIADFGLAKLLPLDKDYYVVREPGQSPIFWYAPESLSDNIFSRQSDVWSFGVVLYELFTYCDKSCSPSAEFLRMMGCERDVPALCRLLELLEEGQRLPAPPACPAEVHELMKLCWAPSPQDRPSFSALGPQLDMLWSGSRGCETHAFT
T2 sequence (P23458 875-1153 limits assumed): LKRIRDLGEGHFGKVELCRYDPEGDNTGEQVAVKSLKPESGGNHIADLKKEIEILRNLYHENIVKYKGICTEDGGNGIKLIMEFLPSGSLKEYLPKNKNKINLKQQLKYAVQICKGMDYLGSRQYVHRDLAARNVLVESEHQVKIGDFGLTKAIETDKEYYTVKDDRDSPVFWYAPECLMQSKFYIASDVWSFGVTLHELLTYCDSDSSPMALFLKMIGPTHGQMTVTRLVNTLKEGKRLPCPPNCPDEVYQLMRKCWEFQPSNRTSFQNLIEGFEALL

Consider `[2H]C([2H])([2H])NC(=O)c1cnc(NC(=O)C2CC2)cc1Nc1cccc2c1N(C([2H])([2H])[2H])Cc1nccnc1-2` [Compound 17, 6-(cyclopropanecarboxamido)-N-(methyl-d3)-4-((6-(methyl-d3)-5,6-dihydropyrazino[2,3-c]quinolin-7-yl)amino)nicotinamide], for which the IC50 in assay [1] is less than 0.03 µM; in assay [2], less than 0.03 µM; in assay [3], more than 1 µM; in assay [4], more than 1 µM; in assay [5], more than 1 µM; in assay [6], more than 1 µM. For the same compound, the IC50 in assay [7] is more than 1 µM; in assay [8] it was 0.03 to 0.3 µM.
Regarding `[2H]C([2H])([2H])NC(=O)c1nnc(NC(=O)C2CC2)cc1Nc1cccc2c1N(C([2H])([2H])[2H])Cc1nccnc1-2` [Compound 18, 6-(cyclopropanecarboxamido)-N-(methyl-d3)-4-((6-(methyl-d3)-5,6-dihydropyrazino[2,3-c]quinolin-7-yl)amino)pyridazine-3-carboxamide], the IC50 is less than 0.03 µM in assay [1]; less than 0.03 µM in assay [2]; more than 1 µM in assay [3]; more than 1 µM in assay [4]; more than 1 µM in assay [5]; more than 1 µM in assay [6]. Moreover, the values for the IC50 in assay [7] and in assay [8] were 0.3 to 1 µM and 0.03 to 0.3 µM, respectively.
For `[2H]C([2H])([2H])NC(=O)c1nnc(NC(=O)C2CC2)cc1Nc1cccc2c1N(C)Cc1cnn(C)c(=O)c1-2` [Compound 27, 6-(cyclopropanecarboxamido)-4-((2,6-dimethyl-1-oxo-1,2,5,6-tetrahydropyridazino[4,5-c]quinolin-7-yl)amino)-N-(methyl-d3)pyridazine-3-carboxamide], the IC50 was less than 0.03 µM in assay [1]; less than 0.03 µM in assay [2]; more than 1 µM in assay [3]; more than 1 µM in assay [4]; more than 1 µM in assay [5]; more than 1 µM in assay [6]. Further, the figures for the 50% inhibitory concentration (IC50) in assay [7] and in assay [8] were 0.3 to 1 µM and 0.03 to 0.3 µM, respectively.
Turning to `[2H]C([2H])([2H])NC(=O)c1cnc(NC(=O)C2CC2)cc1Nc1cccc2c1N(C)Cc1cnn(C)c(=O)c1-2` [Compound 28, 6-(cyclopropanecarboxamido)-4-((2,6-dimethyl-1-oxo-1,2,5,6-tetrahydropyridazino[4,5-c]quinolin-7-yl)amino)-N-(methyl-d3)nicotinamide], the IC50 in assay [1] is less than 0.03 µM; in assay [2] it was less than 0.03 µM; in assay [3] it was more than 1 µM; in assay [4], more than 1 µM; in assay [5], more than 1 µM; in assay [6], more than 1 µM. In addition, the concentration for half-maximal inhibition (IC50) is more than 1 µM in assay [7] and 0.03 to 0.3 µM in assay [8].

These data come from US12600721B2, “TYK2 inhibitors and uses thereof” (Sudo Biosciences Limited, priority 2021, dated 2026).
